Assay results taken from patent US8785442B2, “Compound as antagonist of lysophosphatidic acid receptor, composition, and use thereof” (Curegenix, Inc., priority 2011, dated 2014).

Tests used:
human LPA1 receptor = biological target: T1, human LPA1 receptor (Homo sapiens, UniProt Q92633); assay: calcium flux assay (LPA Receptor Assays); assay type: cell-based
T1 construct: The 1.1 kb cDNA encoding the full-length coding region of human LPA1 was subcloned into the pRK5; expressed in transfected cells; host or cells: HEK293 or CHO cells
Method: A cDNA encoding the human LPA1 receptor was cloned by PCR from cDNA clone obtained from commercial sources. The nucleotide sequence was determined by sequencing and confirmed to be identical to the published human LPA1 sequence (An, 1997). The 1.1 kb cDNA encoding the full-length coding region of human LPA1 was subcloned into the pRK5 […] expression vector. Transfection of the cDNA into HEK293 or CHO cells is performed by using LipofectAmine 2000 (Invitrogen, USA). The full-length cDNA fragments for human LPA2 and LPA3 were obtained by PCR similarly and subcloned into pCDNA3.1 expression vector.
Transfected cells were cultured and subjected to LPA-induced SRE-luciferase reporter gene assay by using generally described methods (An, 1997). Intact HEK293 or CHO cells expressing the recombinant human LPA1 receptor were subjected to a [3H]-LPA ligand binding assay as described (An, 1998).
All compounds presented in the patent have IC50<20 μM in the calcium flux assay.

[1] = tested on: highly peritoneal metastatic pancreatic cancer cell line; details: highly peritoneal metastatic pancreatic cancer cell line (Yamada, 2004); cited from earlier work
breast cancer cells = details: animal models (Boucharaba, 2006); cited from earlier work

T1 sequence (Q92633 whole entry): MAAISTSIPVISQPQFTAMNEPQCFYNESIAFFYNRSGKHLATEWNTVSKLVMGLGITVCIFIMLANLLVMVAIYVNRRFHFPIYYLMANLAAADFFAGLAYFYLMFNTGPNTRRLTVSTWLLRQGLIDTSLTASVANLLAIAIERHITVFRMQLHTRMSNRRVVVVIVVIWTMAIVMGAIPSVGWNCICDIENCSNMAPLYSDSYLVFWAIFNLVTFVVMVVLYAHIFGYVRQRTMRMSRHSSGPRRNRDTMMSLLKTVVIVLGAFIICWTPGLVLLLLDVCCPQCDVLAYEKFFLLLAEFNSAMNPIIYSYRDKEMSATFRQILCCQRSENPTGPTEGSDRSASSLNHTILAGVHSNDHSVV

| IC50 (human LPA1 receptor) [nM] | SMILES | LPA-induced and ascites-induced invasion activity [1] | metastasis of breast cancer cells to bone (breast cancer cells) |
| --- | --- | --- | --- |
| 2200 | Cc1noc(-c2ccc(NC(=O)c3ccccc3)cc2)c1NC(=O)OC(C)c1ccccc1Cl (stereo not drawn) [Compound 16, 1-(2-chlorophenyl)ethyl(5-(4-benzamidophenyl)-3-methylisoxazol-4-yl)carbamate] | – | – |
| 60 | Cc1noc(-c2ccc(NS(C)(=O)=O)cc2)c1NC(=O)OC(C)c1ccc(F)cc1Cl (stereo not drawn) [Compound 42, 1-(2-chloro-4-fluorophenyl)ethyl(3-methyl-5-(4-(methylsulfonamido)phenyl)isoxazol-4-yl)carbamate] | – | – |
| 70 | Cc1noc(-c2ccc(NC(=O)CCC(=O)O)cc2)c1NC(=O)OC(C)c1ccccc1Cl (stereo not drawn) [Compound 12, 4-((4-(4-(((1-(2-chlorophenyl)ethoxy)carbonyl)amino)-3-methylisoxazol-5-yl)phenyl)amino)-4-oxobutanoic acid] | – | – |
| 550 | Cc1noc(-c2ccc3[nH]ncc3c2)c1NC(=O)OC(C)c1ccccc1Cl (stereo not drawn) [Compound 3, 1-(2-chlorophenyl)ethyl(5-(1H-indazol-5-yl)-3-methylisoxazol-4-yl)carbamate] | – | – |
| 70 | Cc1noc(-c2ccc(NS(C)(=O)=O)cc2F)c1NC(=O)OC(C)c1ccccc1Cl (stereo not drawn) [Compound 32, 1-(2-chlorophenyl)ethyl(5-(2-fluoro-4-(methylsulfonamido)phenyl)-3-methylisoxazol-4-yl)carbamate] | – | – |
| 1150 | Cc1noc(-c2ccc(NC(=O)C3CC3)cc2)c1NC(=O)OC(C)c1ccccc1Cl (stereo not drawn) [Compound 7, 1-(2-chlorophenyl)ethyl(5-(4-(cyclopropanecarboxamido)phenyl)-3-methylisoxazol-4-yl)carbamate] | – | – |
| 55 | Cc1noc(-c2ccc(NS(C)(=O)=O)cc2)c1NC(=O)O[C@H](C)c1ccccc1Cl [Compound 19, (R)-1-(2-chlorophenyl)ethyl(3-methyl-5-(4-(methylsulfonamido)phenyl)isoxazol-4-yl)carbamate] | – | – |
| 110 | Cc1noc(-c2ccc(NS(=O)(=O)CCC(=O)O)cc2)c1NC(=O)OC(C)c1ccccc1Cl (stereo not drawn) [Compound 28, 3-(N-(4-(4-(((1-(2-chlorophenyl)ethoxy)carbonyl)amino)-3-methylisoxazol-5-yl)phenyl)sulfamoyl)propanoic acid] | – | – |
| 90 | Cc1noc(-c2ccc(NS(C)(=O)=O)cc2)c1NC(=O)OC(C)c1ccccc1Cl (stereo not drawn) [Compound 1, 1-(2-chlorophenyl)ethyl(3-methyl-5-(4-(methylsulfonamido)phenyl)isoxazol-4-yl)carbamate] | – | – |
| 70 | Cc1noc(-c2ccc(NC(=O)CCC(=O)O)cc2F)c1NC(=O)O[C@H](C)c1ccccc1Cl [Compound 50, (R)-4-((4-(4-(((1-(2-chlorophenyl)ethoxy)carbonyl)amino)-3-methylisoxazol-5-yl)-3-fluorophenyl)amino)-4-oxobutanoic acid] | – | – |
| – | Cc1noc(-c2ccc(CSCCC(=O)O)cc2)c1NC(=O)OC(C)c1ccccc1Cl (stereo not drawn) [Ki16425] | blocked | inhibited |
